Assay results from patent publication US12102086B2, “Antimicrobial peptide Spampcin56-86 from Scylla paramamosain and applications thereof” (XIAMEN UNIVERSITY, priority 2021, dated 2024).
Residues, ends and D or L forms follow the SMILES beside them.

How the values were obtained:
[1] = tested on: L. monocytogenes; assay: MIC and MBC determination; format: cell-based, Listeria Monocytogenes; conditions: CGMC NO. 1.10753, Gram-positive
[2] = tested on: E. faecalis; assay: MIC and MBC determination; format: cell-based, Enterococcus Faecalis; conditions: CGMC NO. 1.2135, Gram-positive
[3] = tested on: E. faecium; assay: MIC and MBC determination; format: cell-based, Enterococcus Faecium; conditions: CGMC NO. 1.131, Gram-positive
[4] = tested on: P. fluorescens; assay: MIC and MBC determination; format: cell-based, Pseudomonas fluorescens; conditions: CGMC NO. 1.3202, Gram-negative
[5] = tested on: S. aureus
[6] = tested on: S. epidermidis; conditions: CGMC NO. 1.4260, Gram-positive
[7] = tested on: S. aureus QZ19132
[8] = tested on: P. aeruginosa; conditions: CGMC NO. 1.2421, Gram-negative
[9] = tested on: A. baumannii; conditions: CGMC NO. 1.6769, Gram-negative
[10] = tested on: A. sobria; conditions: Gram-negative
[11] = tested on: A. hydrophila; conditions: CGMC NO. 1.2017, Gram-negative
[12] = tested on: E. coli
[13] = tested on: E. tarda; conditions: Gram-negative
[14] = tested on: A. baumannii QZ20142; conditions: A. baumannii QZ20142, drug-resistant clinical isolate
[15] = tested on: A. baumannii QZ20143
[16] = tested on: F. oxysporum; conditions: CGMC NO. 3.6785, fungi
[17] = tested on: F. solani; conditions: CGMC NO. 3.5840, fungi

CC(C)C[C@H](NC(=O)CNC(=O)[C@H](Cc1c[nH]cn1)NC(=O)[C@H](C)NC(=O)[C@H](C)NC(=O)[C@H](CCCNC(=N)N)NC(=O)[C@@H](N)CCCNC(=N)N)C(=O)N[C@@H](CC(C)C)C(=O)N1CCC[C@H]1C(=O)N[C@@H](CCCNC(=N)N)C(=O)N[C@@H](CC(C)C)C(=O)N[C@@H](CCCNC(=N)N)C(=O)N[C@@H](C)C(=O)N1CCC[C@H]1C(=O)N1CCC[C@H]1C(=O)N1CCC[C@H]1C(=O)N[C@@H](Cc1ccccc1)C(=O)N[C@@H](Cc1c[nH]cn1)C(=O)N[C@@H](CCCCN)C(=O)N[C@@H](CCCNC(=N)N)C(=O)N[C@@H](CS)C(=O)N[C@H](C(=O)N[C@@H](CS)C(=O)N[C@@H](CC(C)C)C(=O)N[C@@H](CS)C(=O)N[C@@H](CCCNC(=N)N)C(=O)N[C@H](C(=O)N[C@@H](C)C(=O)N1CCC[C@H]1C(=O)N1CCC[C@H]1C(=O)N1CCC[C@H]1C(=O)O)[C@@H](C)O)C(C)C [Spampcin56-86] (H-RRAAHGLLPRLRAPPPFHKRCVCLCRTAPPP-OH; N-terminus and C-terminus assumed)
MBC [1]: 1.5-3^ μM
MIC [1]: 1.5-3^ μM
MBC [2]: 1.5-3^ μM
MIC [2]: 1.5-3^ μM
MBC [3]: 1.5-3^ μM
MIC [3]: 0 to 1.5 µM
MBC [4]: 1.5-3^ μM
MIC [4]: 1.5-3^ μM
MBC [5]: 3 to 6 µM
MBC [6]: 3 to 6 µM
MIC [6]: 3 to 6 µM
MBC [7]: 12 to 24 µM
MBC [8]: 3 to 6 µM
MIC [8]: 1.5-3^ μM
MBC [9]: 3 to 6 µM
MIC [9]: 3 to 6 µM
MBC [10]: 3 to 6 µM
MIC [10]: 3 to 6 µM
MBC [11]: 6 to 12 µM
MIC [11]: 6 to 12 µM
MBC [12]: 3 to 6 µM
MIC [12]: 3 to 6 µM
MBC [13]: 24 to 48 µM
MIC [13]: 3 to 6 µM
MBC [14]: 3 to 6 µM
MIC [14]: 3 to 6 µM
MIC [15]: 3 to 6 µM
MBC [16]: 3 to 6 µM
MIC [16]: 3 to 6 µM
MBC [17]: 3 to 6 µM
MIC [17]: 1.5-3^ μM
